For data set [1] the following is noted: cold and warm water; from Beilsteins Handbuch; cited from earlier work.
The nature of another data set: Solubility in water. Type of data set: physicochemical. The conditions noted are these: general statement, no test described.

As for `Cc1cc(=O)oc2cc(O)ccc12` [Hymecromon, 7-Hydroxy-4-methyl-cumarin], the “Löslichkeit in kaltem und warmen Wasser” value in data set [1] is “nahezu unlöslich”. With `Cc1cc(=O)oc2cc(O)ccc12` [Natriumsalz], the “Löslichkeit in Wasser” value in “Solubility in water” was “gut löslich”.
